Consider five molecules from patent EP0951284B1, “[…] DERIVATIVES” (priority 1996, dated 1998).

The subject of data set [1] is MAO-A. Kind of data set: Inhibition of MAO activity ex vivo (brain tissue), 5-HT substrate. Format: in vivo, mice. Conditions: mouse brain tissue. How it is done: (§1) Male Sabra mice, weighing 45-50g were injected with test compound solutions (prepared in 0.9% saline). Each dose was administered to two or three mice. The mice were sacrificed two hours after drug administration or at a time corresponding to the peak AChE inhibition time (see Table 6). The brain and liver were rapidly dissected and stored in appropriate vials on ice. The tissues were weighed, diluted to 1/20 in sucrose 0.3M and stored at -20°C before performance of the MAO assay described above. The results given in Table 6 relate to measurements made on brain tissue only.

In data set [2] the test system is MAO-B. Kind of data set: Inhibition of MAO activity ex vivo (brain tissue), PEA substrate. The format is in vivo, mice. To be noted: mouse brain tissue. The procedure:
as §1

Data set [3] addresses T1, Human erythrocyte acetylcholinesterase (Homo sapiens, UniProt P22303).
T1 construct: Human erythrocyte acetylcholinesterase (type XIII, Sigma Israel); purchased Sigma Israel type XIII; host or cells: human erythrocytes
Kind of data set: In vitro measurement of acetylcholinesterase (AChE) inhibition (Ellman method). The format is biochemical. Conditions: at time of peak activity, incubation 15 to 60 minutes at 37°C. The procedure: Human erythrocyte acetylcholinesterase (type XIII, Sigma Israel), was prepared in a stock solution of 1U/ml, containing Triton (1%) and bovine serum albumin (0.05%) in phosphate buffer (pH 8). The enzyme (0.05U) was incubated with 3-5 different concentrations of test compound (in triplicate) for periods of from 15 to 60 minutes at 37°C. […] The percentage inhibition of AChE by each concentration of drug is calculated by comparison with that of enzyme in the absence of drug.
A general note: In Ellman's method for cholinesterases, released thiocholine reacts with DTNB.

Data set [4] addresses T2, whole brain AChE (Mus musculus, UniProt P21836).
T2 construct: the brains rapidly removed (minus cerebellum), weighed and homogenized in 0.1M phosphate buffer pH 8.0; from tissue; host or cells: mouse brain (minus cerebellum) homogenate supernatant
T2 sequence (P21836 32-614): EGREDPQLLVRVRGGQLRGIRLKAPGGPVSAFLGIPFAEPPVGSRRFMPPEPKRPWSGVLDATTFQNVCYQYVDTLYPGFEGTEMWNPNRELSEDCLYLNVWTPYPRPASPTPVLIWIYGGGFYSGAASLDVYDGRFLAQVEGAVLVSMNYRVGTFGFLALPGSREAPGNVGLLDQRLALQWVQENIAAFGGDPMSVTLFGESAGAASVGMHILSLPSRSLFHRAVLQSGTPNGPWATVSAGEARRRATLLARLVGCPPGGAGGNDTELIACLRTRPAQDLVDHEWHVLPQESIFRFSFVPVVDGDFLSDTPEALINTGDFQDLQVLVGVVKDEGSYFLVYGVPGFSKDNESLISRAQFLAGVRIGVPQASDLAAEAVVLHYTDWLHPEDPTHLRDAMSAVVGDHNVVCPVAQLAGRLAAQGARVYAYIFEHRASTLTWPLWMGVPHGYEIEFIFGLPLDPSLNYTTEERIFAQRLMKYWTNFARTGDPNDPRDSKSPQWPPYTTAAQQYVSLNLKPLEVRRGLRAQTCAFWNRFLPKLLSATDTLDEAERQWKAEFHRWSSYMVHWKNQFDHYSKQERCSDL
Kind of data set: Ex vivo measurement of brain AChE inhibition after sub-cutaneous administration. Format: in vivo, mice. To be noted: for ED50: sc, sub-cutaneous, mouse whole brain, at peak of activity, read-out: AChE Inhibition Ex vivo ED50 (AC). The procedure: Test drugs or saline were administered sub-cutaneously to male mice (Sabra strain, 28-35g). At least 4-5 mice were used per dose and a minimum of 3 doses per drug were tested. The mice were sacrificed 15, 30, 60, 70, 90, 120 or 180 minutes after drug administration, the brains rapidly removed (minus cerebellum), weighed and homogenized in 0.1M phosphate buffer pH 8.0, containing Triton (1mg/100g tissue) and centrifuged to remove cell debris. Aliquots (25 µl) of the supernatant were then incubated with acetylthiocholine and DTNB. AChE activity measured as described above. The % inhibition of whole brain AChE by each dose of drug was calculated by comparison with enzyme activity from 3 saline treated control mice run at the same time.

Data set [5] concerns the target T3, MAO-A (Rattus norvegicus, UniProt P21396).
T3 sequence (P21396 1-526): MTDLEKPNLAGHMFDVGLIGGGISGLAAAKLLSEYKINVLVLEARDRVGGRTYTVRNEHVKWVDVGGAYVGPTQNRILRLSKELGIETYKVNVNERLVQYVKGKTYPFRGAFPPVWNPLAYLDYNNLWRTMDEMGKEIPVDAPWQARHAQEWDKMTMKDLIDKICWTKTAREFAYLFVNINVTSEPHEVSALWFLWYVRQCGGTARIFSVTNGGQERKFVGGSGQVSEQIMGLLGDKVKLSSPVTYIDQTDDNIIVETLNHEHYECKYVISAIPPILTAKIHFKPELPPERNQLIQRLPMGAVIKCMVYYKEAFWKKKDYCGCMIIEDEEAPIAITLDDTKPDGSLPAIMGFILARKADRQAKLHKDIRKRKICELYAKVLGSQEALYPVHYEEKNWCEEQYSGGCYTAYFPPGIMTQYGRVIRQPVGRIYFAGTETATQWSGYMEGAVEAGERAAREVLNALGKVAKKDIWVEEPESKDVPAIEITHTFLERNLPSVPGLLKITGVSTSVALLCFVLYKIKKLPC
As to the kind of experiment: Inhibition of MAO activity in vitro, rat brain homogenate, 5-HT substrate.
Method: (§2) The MAO enzyme source was a homogenate of rat brain in 0.3M sucrose, which was centrifuged at 600G for 15 minutes. The supernatant was diluted appropriately in 0.05M phosphate buffer, and pre-incubated with serial dilutions of test compounds for 20 minutes at 37°C. ^14C-Labeled substrates (2-phenylethylamine, hereinafter PEA; 5-hydroxytryptamine, hereinafter 5-HT) were then added, and the incubation continued for a further 20 minutes (PEA), or 30-45 minutes (5-HT). Substrate concentrations used were 50µM (PEA) and 1mM (5-HT). In the case of PEA, enzyme concentration was chosen so that not more than 10% of the substrate was metabolized during the course of the reaction. The deaminated products were extracted into toluene-ethyl acetate (1:1, v/v) containing 0.6% (w/v) 2,5-diphenyloxazole prior to determination by liquid scintillation counting. Radioactivity in the eluate indicates the production of neutral and acidic metabolites formed as a result of MAO activity. Activity of MAO in the sample was expressed as a percentage of control activity in the absence of inhibitors after subtraction of appropriate blank values The activity determined using PEA as substrate is referred to as MAO-B, and that determined using 5-HT as MAO-A.

Data set [6] concerns the target T4, MAO-B (Rattus norvegicus, UniProt P19643).
T4 sequence (P19643 1-520): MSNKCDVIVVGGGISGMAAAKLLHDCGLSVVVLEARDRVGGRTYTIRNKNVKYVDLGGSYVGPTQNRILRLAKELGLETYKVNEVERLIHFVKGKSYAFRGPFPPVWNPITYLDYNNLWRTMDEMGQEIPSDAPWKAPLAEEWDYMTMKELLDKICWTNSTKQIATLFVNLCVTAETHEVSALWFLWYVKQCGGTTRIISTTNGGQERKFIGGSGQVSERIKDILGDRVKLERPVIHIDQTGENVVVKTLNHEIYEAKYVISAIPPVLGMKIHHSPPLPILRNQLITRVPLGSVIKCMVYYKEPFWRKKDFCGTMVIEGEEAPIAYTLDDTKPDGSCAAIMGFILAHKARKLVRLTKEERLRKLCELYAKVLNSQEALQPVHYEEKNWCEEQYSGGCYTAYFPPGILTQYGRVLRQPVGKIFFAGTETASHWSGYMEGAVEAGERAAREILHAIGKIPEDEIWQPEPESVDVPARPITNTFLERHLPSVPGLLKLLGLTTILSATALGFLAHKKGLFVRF
Kind of data set: Inhibition of MAO activity in vitro, rat brain homogenate, PEA substrate. Set-up: The MAO enzyme source was a homogenate of rat brain in 0.3M sucrose; from tissue; host or cells: rat brain homogenate (600G supernatant). Conditions: PEA 50µM. The format is biochemical.
Method: as §2

The nature of data set [7]: Acute toxicity in mice (sub-cutaneous, lethality within 6 hours). To be noted: mouse, in vivo, sc; for selectivity ratio: LD50 divided by ED50 (acetylcholine esterase ex vivo), read-out: Therapeutic Ratio (LD/AC); for LD50 at 6 h: sub-cutaneous, mice, within 6 hours. The procedure: Drugs were administered sub-cutaneously in at least 3 doses, to a minimum of 10 mice per dose. […] Therapeutic Ratio was calculated as LD50 divided by ED50(acetylcholine esterase ex vivo).

[8] abbreviates: read-out: MAO-A Inhibition In vitro IC50, rat brain homogenate, 5-HT 1mM.

Molecules are shown by their SMILES. Counter-ions that a name gives are not always drawn. Like-named read-outs stand apart in the source and are kept apart here.

T1 sequence (P22303 32-617 isoform P22303-2 limits assumed): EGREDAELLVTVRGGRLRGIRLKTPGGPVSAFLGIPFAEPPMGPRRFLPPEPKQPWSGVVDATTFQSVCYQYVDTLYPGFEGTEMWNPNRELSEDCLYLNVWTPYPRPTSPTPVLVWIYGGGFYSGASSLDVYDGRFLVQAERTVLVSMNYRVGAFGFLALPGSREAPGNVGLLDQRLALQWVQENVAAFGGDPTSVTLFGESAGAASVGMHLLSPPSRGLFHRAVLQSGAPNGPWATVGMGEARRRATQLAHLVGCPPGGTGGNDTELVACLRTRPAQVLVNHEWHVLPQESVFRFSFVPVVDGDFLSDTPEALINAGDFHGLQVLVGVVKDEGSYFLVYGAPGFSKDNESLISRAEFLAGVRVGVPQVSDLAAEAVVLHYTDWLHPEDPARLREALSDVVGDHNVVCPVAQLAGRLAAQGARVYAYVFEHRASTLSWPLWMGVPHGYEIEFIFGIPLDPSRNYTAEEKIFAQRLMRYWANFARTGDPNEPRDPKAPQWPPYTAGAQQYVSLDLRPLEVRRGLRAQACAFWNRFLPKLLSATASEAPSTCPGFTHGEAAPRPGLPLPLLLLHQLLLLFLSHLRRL

The term IC50 denotes the point on the concentration scale where inhibition reaches its midpoint. One may read the ED50 as the dose at which the effect has come halfway, by size or by number of responders. With `C#CCNCCc1cccc(OC(=O)N(C)CCC)c1` [Compound 14], in data set [1], the “MAO-A Inhibition Ex vivo ED50” value turned out to be 4.5 µmol/kg. In data set [2], the “MAO-B Inhibition Ex vivo ED50” value was 0.6 µmol/kg. The IC50 in data set [3] is 12500 nM; in data set [5] (setting [8]), 1800 nM; in data set [6], 300 nM. Moreover, in data set [4] (AChE inhibition), the “Time to peak activity t” value is recorded as 30 min. In addition, the ED50 in data set [4] is 100 µmol/kg.
What is called LD50 is the dose expected to kill half of the subjects tested. A high value points to a less toxic substance. For the molecule `C#CCNCCc1cccc(OC(=O)N(C)CC)c1` [Compound 13], in data set [7], the selectivity ratio amounted to 8.5 and the LD50 at 6 h turned out to be 458 µmol/kg. Further, in data set [1], the “MAO-A Inhibition Ex vivo ED50” value was determined as 75 µmol/kg. Moreover, the “MAO-B Inhibition Ex vivo ED50” value in data set [2] stood at 50 µmol/kg. In addition, half-maximal inhibition in data set [3] (IC50) was put at 30000 nM. In addition, in data set [4] (AChE inhibition), the “Time to peak activity t” value lay within 30 to 90 min and the “Time to return to 50% of peak t” value is recorded as 120 min. In data set [4], the median effective dose (ED50) was determined as 53.8 µmol/kg. The molecule further yielded an IC50 in data set [5] of 3300 nM. This molecule showed a half-inhibitory concentration (IC50) in data set [6] of 8300 nM.
Regarding `C#CCN(C)C(C)Cc1cccc(OC(=O)N(C)CC)c1` (stereo not shown) [Compound 21], the IC50 was 230000 nM in data set [3], 120 nM in data set [5] (setting [8]) and 200 nM in data set [6].
For `C#CCN(C)C(C)Cc1cccc(OC(=O)N(C)C)c1` (racemic) [Compound 20, (rac)-3-(N,N-dimethyl-carbamyloxy) -α-methyl-N'-methyl,N'-propargyl phenethylamine HCl], the selectivity ratio in data set [7] was found to be 11.3. In data set [7], the LD50 at 6 h is 170 µmol/kg. The “MAO-A Inhibition Ex vivo ED50” value in data set [1] came to 6 µmol/kg. The “MAO-B Inhibition Ex vivo ED50” value in data set [2] was found to be 7 µmol/kg. Besides, the values for the IC50 in data set [3], in data set [5] and in data set [6] were 1700 nM, 120 nM and 400 nM, respectively. For the same molecule, in data set [4], the ED50 amounted to 15 µmol/kg.
With `C#CCN(C)CCc1cccc(OC(=O)N(C)CC)c1` [Compound 15], the selectivity ratio in data set [7] is 8.6. In data set [7], the median lethal dose (LD50) at 6 h was found to be 1250 µmol/kg. Also, the “MAO-A Inhibition Ex vivo ED50” value in data set [1] amounted to 35 µmol/kg. Moreover, the “MAO-B Inhibition Ex vivo ED50” value in data set [2] is 35 µmol/kg. Besides, the half-inhibitory concentration (IC50) in data set [3] turned out to be 67200 nM; in data set [5] it was 1000 nM; in data set [6], 1000 nM. The “Time to peak activity t” value in data set [4] (AChE inhibition) was 30 min. Further, in data set [4], the 50% effective dose (ED50) amounted to 145 µmol/kg.
